These results are taken from patent US11992697B2, “X-ray psoralen activated cancer therapy (X-PACT)” (IMMUNOLIGHT, LLC, priority 2015, dated 2024).

Data set [1] relates to CT2A (murine malignant glioma). The experiment in a line: UV light activated psoralen, Cell-Titer-Glo Luminescence Cell Viability Assay (FIG. 3A). Format: cell-based. Particulars: psoralen 40 μM; UV light 0, 0.25, 0.5, 1.0 J/cm^2. The protocol:
(§1) Metabolic cell viability was also assessed visually using Methylene blue staining and ATP-induced Luminescence imaging (Cell-Titer-Glo® Luminescence Cell Viability Assay). The luminescence imaging permitted investigation of the cytotoxicity of psoralen activated directly with a UV lamp, and in the absence of phosphors and x-ray radiation.
(§2) N=4 for each cell line at each UV light condition (0, 0.25, 0.5, 1.0 J/cm^2). The psoralen concentration was 40 μM.

Data set [2] has as its system 4T1. The description is as above. Format: cell-based, murine. The settings on record: psoralen 40 μM; UV light 0, 0.25, 0.5, 1.0 J/cm^2. As for the experimental part: as §1, §2
Data set [3] relates to KP158B (sarcoma). The data set is described as above. Format: cell-based, murine. Particulars: psoralen 40 μM; UV light 0, 0.25, 0.5, 1.0 J/cm^2. As for the experimental part:
as §1, §2

For data set [4], the system named is syngeneic 4T1-HER2 tumors. The data set can be described thus: In-vivo X-PACT trial, tumor growth (FIG. 6). Further details: species or system BALB/c mice. Particulars: 5 μM psoralen (AMT) or 100 μg phosphor with x-ray; compared with expectation from in-vitro data. The protocol:
An in-vivo trial was conducted for preliminary evaluation of X-PACT administered to syngeneic 4T1-HER2 tumors grown on BALB/c mice. There were 4 arms of the trial: (1) saline only (control), (2) phosphors alone with x-ray, (3) psoralen (AMT) alone with x-ray, and (4) full X-PACT treatment including both phosphor and psoralen and x-ray irradiation. X-PACT treatments were given in 3 fractions per week, to a total of 6 fractions. In arms 2-3 a consistent x-ray irradiation technique was used (about 1.2 Gy delivered at 75 kVp by 30 mA in 3 minutes) with 100 μg of phosphor, and 5 μM psoralen (AMT) (with μM representing micromolar). 0.5 Million tumor cells were injected per mouse. There were 6-8 mice per arm, and the study was repeated a second time, yielding effective sample sizes of 12-16.
In this evaluation, X-PACT treatment was applied to BALBC mice with syngeneic 4T1-HER2 tumors. In the separate psoralen and phosphor control arms (blue and red respectively), 5 μM psoralen (AMT) and 100 μg of phosphor where applied. A consistent x-ray irradiation technique was used for all arms (except saline control) which was 2 Gy delivered at 75 kVp by 30 mA in 3 minutes.

Data set [5] relates to 4T1-HER2 cells. The data set can be described thus: In-vitro X-PACT Annexin V (+) signal by Guava flow cytometry (FIGS. 2B, 4, 5). Format: cell-based, murine. The settings on record: component alone; 36 independent irradiation experiments, 1 Gy at 80 kVp. As for the experimental part: Guava Annexin V flow cell cytometry was used to quantify cytotoxicity in 3 murine tumor cell lines (breast-4T1, glioma-CT2A, and sarcoma KP15B8). In-vitro X-PACT studies were conducted on cells prepared in the following manner. Cells were incubated in appropriate growing media and buffers before being trypsinized and plated evenly onto twelve (12) well plates for 24 hours. About 20 minutes prior to X-PACT irradiation, the wells of each plate were exposed to the following combinations of additives: (1) control—cells only with no additives, (2) UVADEX only, (3) phosphors only, (4) UVADEX+phosphors. Each plate had twelve (12) wells with three wells for each of the four treatment arms. […]
Two primary flow cytometry metrics were used to evaluate the X-PACT treatments, both determined at 48h after X-PACT treatment. […] The first metric is metabolically viable cell count (or cell viability) determined from the number of whole cells per well as determined using forward scattering (FSC). […] (All wells on a given plate receive the same dose.) The second metric is Annexin V (+) signal, which is the fraction of the metabolically viable cells which expressed a positive Annexin V signal as determined by flow cell cytometry, and include any cells advancing toward early or late apoptotic cell death. […]

SMILES strings stand for the structures.

Regarding `O=c1ccc2cc3ccoc3cc2o1` [psoralen], the “effect of UV light activated psoralen on viable cells” value in data set [1], in data set [2] and in data set [3] was “reduce viable cells” in each case. In data set [4], the “component effect on tumor growth (single-component arm with x-ray)” value is recorded as “slightly higher component effect”. Also, in data set [5], the “effect on cytotoxicity (Annexin V signal), multi-variable regression” value is given as “neither psoralen nor phosphor alone had a strong effect”.
